Measured values taken from the supplement of paper PMC10011410.
± gives the standard deviation of the averaged measurements.

Legend:
U-2 OS [1] = assay: relative cell count vs DMSO (cell painting) (fraction of DMSO control); higher = more cells remaining (less cytotoxic); conditions: 24 h
Outline: (§1)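 Images taken on an Opera Phenix of U-2 OS cells stained with MitoTracker, concanavalin A, phalloidin, wheat germ agglutinin, Hoechst and SYTO 14 were processed in CellProfiler, with features normalized to DMSO cells on the same plate. The cells, about 1,500 per well in 384-well plates, had been treated by pin tool for 24 h at 37 °C, usually at six 2-fold concentrations from 20 μM to 625 nM. The activity score measures Mahalanobis distance from DMSO wells, and cell count is expressed relative to DMSO wells. Each value averages four replicate plates.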

U-2 OS [2] = assay: cell viability (CellTiter-Glo) relative to DMSO (% of control); higher = more viable; conditions: 24 h
Protocol: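 Cell viability of U-2 OS cells by CellTiter-Glo after 24 h compound treatment at 5, 10 and 20 uM (some at 40 and 80 uM), measured in parallel with the glutathione assay, as percent of DMSO control. Five technical replicate plates, averaged.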

U-2 OS [3] = assay: intracellular GSH:GSSG ratio (calculated); higher = more reduced glutathione pool; conditions: 24 h
Protocol: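 Intracellular glutathione in U-2 OS cells after 24 h compound treatment at 5, 10 and 20 uM (some at 40 and 80 uM). Total glutathione and GSSG were measured with the GSH/GSSG-Glo kit, and the GSH:GSSG ratio was calculated. Mean of five technical replicate plates.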

U-2 OS [4] = assay: total intracellular glutathione (GSH + GSSG) relative to DMSO (% of control); higher = more glutathione; conditions: 24 h
Protocol: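 Total intracellular glutathione (GSH + GSSG) in U-2 OS cells by GSH/GSSG-Glo after 24 h compound treatment at 5, 10 and 20 uM (some at 40 and 80 uM), as percent of DMSO control. Five technical replicate plates, averaged.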

U-2 OS [5] = assay: AUC of culture confluence over time (live-cell imaging) (AUC (confluence % x time)); higher = more confluent culture (less growth inhibition)
Outline: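 Each value is the area under a curve of confluence over time for U-2 OS cells. The cells, in F-12K medium with 10% FBS, were plated at 750 per well in 384-well plates and dosed by pin tool 24 h later, most compounds at 20, 10 and 5 μM with 0.2% DMSO. They were held at 37 °C and imaged every 4 h for up to 60 h.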

U-2 OS [6] = assay: cell painting activity score (Mahalanobis distance from DMSO wells); higher = stronger morphological phenotype; conditions: 24 h
Outline: as §1

SMILES | relative cell count (U-2 OS [1]; 0.625 µM) | relative cell count (U-2 OS [1]; 1.25 µM) | relative cell count (U-2 OS [1]; 2.5 µM) | relative cell count (U-2 OS [1]; 5 µM) | relative cell count (U-2 OS [1]; 10 µM) | relative cell count (U-2 OS [1]; 20 µM) | cell viability (U-2 OS [2]; 5 µM) | cell viability (U-2 OS [2]; 10 µM) | cell viability (U-2 OS [2]; 20 µM) | intracellular GSH:GSSG ratio (U-2 OS [3]; 5 µM) | intracellular GSH:GSSG ratio (U-2 OS [3]; 10 µM) | intracellular GSH:GSSG ratio (U-2 OS [3]; 20 µM) | total intracellular glutathione (U-2 OS [4]; 5 µM) | total intracellular glutathione (U-2 OS [4]; 10 µM) | total intracellular glutathione (U-2 OS [4]; 20 µM) | AUC of culture confluence over time (U-2 OS [5]; 5 µM) | AUC of culture confluence over time (U-2 OS [5]; 10 µM) | AUC of culture confluence over time (U-2 OS [5]; 20 µM) | cell painting activity score (U-2 OS [6]; 0.625 µM) | cell painting activity score (U-2 OS [6]; 1.25 µM) | cell painting activity score (U-2 OS [6]; 2.5 µM) | cell painting activity score (U-2 OS [6]; 5 µM) | cell painting activity score (U-2 OS [6]; 10 µM) | cell painting activity score (U-2 OS [6]; 20 µM) | AUC of culture confluence over time (U-2 OS [5]; 0.625 µM) | AUC of culture confluence over time (U-2 OS [5]; 1.25 µM) | AUC of culture confluence over time (U-2 OS [5]; 2.5 µM) | cell viability (U-2 OS [2]; 40 µM) | cell viability (U-2 OS [2]; 80 µM) | intracellular GSH:GSSG ratio (U-2 OS [3]; 40 µM) | total intracellular glutathione (U-2 OS [4]; 40 µM) | total intracellular glutathione (U-2 OS [4]; 80 µM) | relative cell count (U-2 OS [1]; 40 µM) | relative cell count (U-2 OS [1]; 80 µM) | intracellular GSH:GSSG ratio (U-2 OS [3]; 80 µM) | AUC of culture confluence over time (U-2 OS [5]; 40 µM) | AUC of culture confluence over time (U-2 OS [5]; 80 µM) | cell painting activity score (U-2 OS [6]; 40 µM) | cell painting activity score (U-2 OS [6]; 80 µM)
Nc1nc(-c2ccccc2)[n+](-c2ccccc2)s1 | 1.06 | 1.11 | 1.04 | 1.13 | 1.08 | 0.605 | 106 ± 3.7 | 105 ± 6.1 | 16 ± 10 | 25.1 | 18.2 | 2.7 | 113 ± 5.1 | 117 ± 8.2 | 26.8 ± 7.4 | 39.6 | 44.4 | 43.3 | 7.03 | 3.42 | 2.65 | 3.42 | 3.28 | 9.72 |  |  |  |  |  |  |  |  |  |  |  |  |  |  | 
Cc1cc(-c2ccccc2)cc(C(=O)NNS(=O)(=O)c2ccccc2)c1F | 0.914 | 0.965 | 0.931 | 0.965 | 0.952 | 0.966 | 109 ± 6 | 101 ± 7.7 | 98.9 ± 2.5 | 37 | 26 | 29 | 124 ± 13 | 109 ± 5.4 | 110 ± 4.2 | 52.8 | 51.6 | 46.7 | 6.33 | 7.18 | 6.97 | 6.92 | 8.27 | 8.87 |  |  |  |  |  |  |  |  |  |  |  |  |  |  | 
COc1cc2c(c(OC)c1OC)-c1ccc(OC)c(=O)cc1[C@@H](NC(C)=O)CC2 | 0.215 ± 0.03 | 0.215 ± 0.021 | 0.213 ± 0.02 | 0.209 ± 0.021 | 0.205 ± 0.017 | 0.197 ± 0.018 | 49.1 ± 4 | 52.8 ± 6.9 | 57.8 ± 6.9 | 3 | 2.46 | 2.47 | 59.7 ± 3.7 | 58.1 ± 4.3 | 60.6 ± 3.2 | 20.1 | 19.7 | 22.8 ± 0.82 | 22.4 ± 2.2 | 22 ± 1.8 | 20.7 ± 1.9 | 20.3 ± 2.4 | 21.3 ± 1.8 | 21 ± 1.7 | 21.6 | 21.5 | 21 |  |  |  |  |  |  |  |  |  |  |  | 
O=C(NNS(=O)(=O)c1ccccc1F)c1cc(F)cc(-c2ccccn2)c1 | 1 | 0.967 | 0.966 | 0.955 | 0.925 | 0.939 | 97.4 ± 5.8 | 97.1 ± 5.3 | 97.2 ± 4.7 | 21.6 | 19.3 | 22.2 | 101 ± 5.7 | 103 ± 5.3 | 104 ± 5.1 | 47.7 | 48.6 | 51.9 | 4.25 | 5.31 | 5.99 | 9.11 | 10.5 | 9.4 |  |  |  |  |  |  |  |  |  |  |  |  |  |  | 
Oc1cccc(O)c1O | 0.96 | 0.998 | 0.978 | 1.02 | 0.974 | 0.973 | 82.2 ± 6.1 | 35.7 ± 10 | 0.451 ± 0.23 | 22.7 | 8.34 | 5.48 | 82.6 ± 6.4 | 48.8 ± 13 | 3.4 ± 0.69 | 46.4 | 48 | 38.4 | 3.4 | 4.83 | 3.93 | 3.87 | 5.49 | 5.54 |  |  |  | 0.221 ± 0.03 | 0.263 ± 0.059 | 1.66 | 2.67 ± 0.16 | 2.53 ± 0.23 |  |  |  |  |  |  | 
CC(C)[C@H](C(=O)Nc1ccc(C(=O)NO)cc1)c1ccccc1 | 0.727 | 0.52 | 0.497 | 0.465 | 0.442 | 0.41 | 44.2 ± 4.6 | 44 ± 1.6 | 44 ± 1.6 | 6.7 | 7.56 |  | 40.8 ± 2.6 | 40.5 ± 3.5 | 39.6 ± 4.1 | 18.7 | 20 | 18.2 | 16.9 | 20.2 | 19.4 | 17.6 | 13.3 | 15.9 |  |  |  |  |  |  |  |  |  |  |  |  |  |  | 
CC(=O)OC1C(c2ccc(=O)oc2)C2(C)CCC3C(CCC4CC(O)CCC43C)C23OC13 (configuration not stated) | 0.327 | 0.27 | 0.264 | 0.242 | 0.229 | 0.224 | 21.4 ± 1.7 | 21.5 ± 2.2 | 23.7 ± 3.1 | 4.48 | 3.04 | 2.21 | 13.9 ± 1.2 | 12.1 ± 1.1 | 11.5 ± 0.76 | 17.6 | 19.4 | 17.6 | 17.1 | 16.2 | 18 | 19 | 18.5 | 18.8 |  |  |  |  |  |  |  |  |  |  |  |  |  |  | 
O=S1(=O)C=C(Sc2nn(-c3ccccc3)c(=S)s2)c2ccccc21 | 0.875 | 0.647 | 0.35 | 0.223 | 0.247 | 0.259 | 38.8 ± 8.9 | 30.5 ± 2.7 | 36.6 ± 8.1 | 11.7 | 7.07 | 2.96 | 65 ± 9.1 | 43.8 ± 9 | 29.2 ± 4.9 | 17.7 | 15.9 | 16.3 | 11.4 | 11.7 | 19.6 | 17.8 | 20.4 | 18.2 |  |  |  |  |  |  |  |  |  |  |  |  |  |  | 
O=C(OCC)/C(C(OCC)=O)=C\CCCCCCCCCCCCCC | 0.991 | 0.978 | 0.959 | 1.02 | 0.99 | 0.967 | 94.3 ± 6.5 | 96.7 ± 6.4 | 100 ± 8 | 18.9 | 17.6 | 21.8 | 100 ± 4.9 | 95.7 ± 3.5 | 93.1 ± 2 | 53.1 | 50.2 | 48.9 | 5.04 | 5.19 | 5.29 | 5.06 | 5.95 | 10.9 |  |  |  | 98 ± 6.9 | 99.2 ± 6.2 | 22 | 105 ± 4.8 | 98.9 ± 3 | 0.841 | 0.829 | 20.9 | 50.4 | 50.3 | 7.78 | 10.2
COC(=O)Nc1nc2ccc(C(=O)c3cccs3)cc2[nH]1 | 0.272 ± 0.056 | 0.265 ± 0.032 | 0.243 ± 0.033 | 0.232 ± 0.034 | 0.222 ± 0.035 | 0.211 ± 0.036 | 54.8 ± 7 | 47.5 ± 5.7 | 52.3 ± 9.2 | 3.33 | 2.36 | 2.95 | 53.1 ± 6.4 | 50.2 ± 4.2 | 51.4 ± 6 | 20.2 | 18.8 | 24.1 | 19.6 ± 2.7 | 18.4 ± 2.2 | 21.5 ± 2.2 | 22.3 ± 1.8 | 22.7 ± 1.8 | 23.1 ± 1.4 | 20.9 | 19.1 | 21.5 |  |  |  |  |  |  |  |  |  |  |  | 
O=[N+]([O-])c1c(Cl)cc(Cl)c2nsnc12 | 0.967 | 0.626 | 0.447 | 0.222 | 0.02 | 0.0161 | 88.3 ± 13 | 52.4 ± 10 | 19.5 ± 8.6 | 13.9 | 6.83 | 2.56 | 116 ± 6.5 | 81.7 ± 6 | 48.7 ± 3.5 | 19.8 | 10.2 | 8 | 5.1 | 10.7 | 14.1 | 17.8 | 25.1 | 24.4 |  |  |  |  |  |  |  |  |  |  |  |  |  |  | 
COc1cc2ncnc(Nc3ccc(F)c(Cl)c3)c2cc1NC(=O)/C=C/CN1CCCCC1 | 0.624 | 0.681 | 0.586 | 0.503 | 0.331 | 0.035 | 74.4 ± 5 | 59.5 ± 2.5 | 22.4 ± 5.3 | 10.8 | 7.42 | 1.96 | 81.2 ± 4.8 | 59.3 ± 3.2 | 18.3 ± 12 | 26.9 | 14.6 | 13.7 | 10.6 | 10.4 | 11.7 | 13.9 | 18.6 | 22.1 |  |  |  |  |  |  |  |  |  |  |  |  |  |  | 
C=CC(=O)Nc1cc2c(Nc3ccc(F)c(Cl)c3)ncnc2cc1OC | 1.02 | 1.06 | 1.05 | 0.989 | 1 | 0.992 | 93.5 ± 3.4 | 91.9 ± 1.7 | 86.5 ± 2.2 | 19.9 | 24.8 | 20.5 | 99.7 ± 5.3 | 96.6 ± 3.8 | 94.5 ± 4.3 |  |  |  | 5.64 | 6.77 | 6.2 | 7.6 | 7.34 | 7.33 |  |  |  |  |  |  |  |  |  |  |  |  |  |  | 
O=C(CSC1CC(=O)N(c2cccc(Cl)c2)C1=O)Nc1ccc(Br)cc1 (configuration not stated) | 1.13 | 1.13 | 1.06 | 1.06 | 1.1 | 1.12 | 105 ± 8.8 | 99.5 ± 4.2 | 107 ± 5.8 | 28 | 31.9 | 26.5 | 94.6 ± 4.8 | 93.9 ± 4 | 95.2 ± 5.6 |  |  |  | 3.18 | 3.28 | 3.09 | 4.23 | 3.79 | 3.43 |  |  |  |  |  |  |  |  |  |  |  |  |  |  | 
